Columns and labels:
Cyperus serotinus Rottb. = experiment: Test 4 paddy pot herbicidal effect; details: applied next day, 28th day from application
[1] = system: Echinochloa oryzicola vasing.; experiment: Test 4 paddy pot herbicidal effect; details: applied next day, 28th day from application
[2] = system: Echinochloa oryzicola vasing.; experiment: Test 1 paddy pot herbicidal effect, water surface application; format: in vivo; details: applied day after sowing, evaluated 28 days later
Description: (§1) Standard of herbicidal effect (level of suppression of development and growth) […] Herbicidal effect of 90% or more, injury to paddy rice […] Herbicidal effect of 70% or more to less than 90%, injury to paddy rice […] 2: […]

[3] = system: Monochoria vaginalis (Burm. f.) Presl var. plantaginea (Roxb.) Solms-Laub.; experiment: as above; format: in vivo; details: applied day after sowing, evaluated 28 days later
Description: as §1

Sagittaria pygmaea Miq. = experiment: Test 4 paddy pot herbicidal effect; details: applied next day, 28th day from application
[4] = system: Echindchloa oryzicola Vasing. (Ec); experiment: Test 5 herbicidal effect by application stage; details: 28th day from application

2-[(4,6-dimethoxypyrimidine-2-yl)hydroxymethyl]-6-methoxymethyltrifluoromethanesulfonyl anilide [Example 4]
Herbicidal effect Cy (Cyperus serotinus Rottb.; 0.6 g/10 ares): 4 (Herbicidal effect of 70% or more to less than 90%, injury to paddy rice)
Herbicidal effect Cy (Cyperus serotinus Rottb.; 1.3 g/10 ares): 5 (Herbicidal effect of 90% or more, injury to paddy rice)
Herbicidal effect Cy (Cyperus serotinus Rottb.; 2.5 g/10 ares): 5 (Herbicidal effect of 90% or more, injury to paddy rice)
Herbicidal effect Cy (Cyperus serotinus Rottb.; 5.0 g/10 ares): 5 (Herbicidal effect of 90% or more, injury to paddy rice)
Herbicidal effect Ec ([1]; 0.6 g/10 ares): 2 (Herbicidal effect of 30% or more to less than 50%, injury to paddy rice)
Herbicidal effect Ec ([1]; 1.3 g/10 ares): 4 (Herbicidal effect of 70% or more to less than 90%, injury to paddy rice)
Herbicidal effect Ec ([1]; 2.5 g/10 ares): 5 (Herbicidal effect of 90% or more, injury to paddy rice)
Herbicidal effect Ec ([1]; 5.0 g/10 ares): 5 (Herbicidal effect of 90% or more, injury to paddy rice)
Herbicidal effect Ec ([2]; 0.4 g/10 ares): 2 (Herbicidal effect of 30% or more to less than 50%, injury to paddy rice)
Herbicidal effect Ec ([2]; 1.6 g/10 ares): 5 (Herbicidal effect of 90% or more, injury to paddy rice)
Herbicidal effect Ec ([2]; 6.3 g/10 ares): 5 (Herbicidal effect of 90% or more, injury to paddy rice)
Herbicidal effect Ec ([2]; 25.0 g/10 ares): 5 (Herbicidal effect of 90% or more, injury to paddy rice)
Herbicidal effect Mo ([3]; 0.4 g/10 ares): 3 (Herbicidal effect of 50% or more to less than 70%, injury to paddy rice)
Herbicidal effect Mo ([3]; 1.6 g/10 ares): 5 (Herbicidal effect of 90% or more, injury to paddy rice)
Herbicidal effect Mo ([3]; 6.3 g/10 ares): 5 (Herbicidal effect of 90% or more, injury to paddy rice)
Herbicidal effect Mo ([3]; 25.0 g/10 ares): 5 (Herbicidal effect of 90% or more, injury to paddy rice)
Herbicidal effect Sa (Sagittaria pygmaea Miq.; 0.6 g/10 ares): 4 (Herbicidal effect of 70% or more to less than 90%, injury to paddy rice)
Herbicidal effect Sa (Sagittaria pygmaea Miq.; 1.3 g/10 ares): 5 (Herbicidal effect of 90% or more, injury to paddy rice)
Herbicidal effect Sa (Sagittaria pygmaea Miq.; 2.5 g/10 ares): 5 (Herbicidal effect of 90% or more, injury to paddy rice)
Herbicidal effect Sa (Sagittaria pygmaea Miq.; 5.0 g/10 ares): 5 (Herbicidal effect of 90% or more, injury to paddy rice)
Herbicidal effect (Ec) Application stage 1-leaf ([4]; 1.3 g/10 ares): 4 (Herbicidal effect of 70% or more to less than 90%, injury to paddy rice)
Herbicidal effect (Ec) Application stage 2-leaf ([4]; 1.3 g/10 ares): 3 (Herbicidal effect of 50% or more to less than 70%, injury to paddy rice)
Herbicidal effect (Ec) Application stage 3-leaf ([4]; 1.3 g/10 ares): 3 (Herbicidal effect of 50% or more to less than 70%, injury to paddy rice)
Herbicidal effect (Ec) Application stage 1-leaf ([4]; 2.5 g/10 ares): 5 (Herbicidal effect of 90% or more, injury to paddy rice)
Herbicidal effect (Ec) Application stage 2-leaf ([4]; 2.5 g/10 ares): 5 (Herbicidal effect of 90% or more, injury to paddy rice)
Herbicidal effect (Ec) Application stage 3-leaf ([4]; 2.5 g/10 ares): 5 (Herbicidal effect of 90% or more, injury to paddy rice)
Herbicidal effect (Ec) Application stage 1-leaf ([4]; 5.0 g/10 ares): 5 (Herbicidal effect of 90% or more, injury to paddy rice)
Herbicidal effect (Ec) Application stage 2-leaf ([4]; 5.0 g/10 ares): 5 (Herbicidal effect of 90% or more, injury to paddy rice)
Herbicidal effect (Ec) Application stage 3-leaf ([4]; 5.0 g/10 ares): 5 (Herbicidal effect of 90% or more, injury to paddy rice)

From patent US6458748B1, “Di- or tri-fluoromethanesulfonyl anilide derivatives, process for the preparation of them and herbicides containing them as the active ingredient” (Ihara Chemical Industry Co., Ltd., priority 1998, dated 2002)
